Reference: patent publication US20250296960A1, “PEPTIDE COMPOSITIONS AND METHODS OF USE THEREOF” (priority 2022, published 2025)
Where two headings read alike, the source gives them in different places. Numbered stars: 1 amine (or outer) side, 2 acyl side, 3 side chain; on linkers, the order of the positions; unused ones are H or OH. Square brackets hold non-standard residues; d marks the D form. Side chains are listed from the residue outwards. Peptide text beside a SMILES is read from it. * marks the point of attachment. Biotin = O=C1N[C@H]2[C@H](CS[C@H]2CCCCC(=O)*)N1; C18 diacid = O=C(O)CCCCCCCCCCCCCCCCC(=O)*; γGlu = O=C(O)[C@H](CCC(=O)[*:2])N[*:1]; AEEA = NCCOCCOCC(=O)O; Aib = CC(C)(N)C(=O)O

Experiments:
[1] = Body weight loss in high fat diet (HFD) mice, 2 weeks; assay type: in vivo; conditions: 20 nmol/kg s.c. Q2D
Procedure: This study was conducted to confirm the body weight loss effect and select the peptides to be evaluated in high fat diet (HFD) treated mouse, which is widely used as experimental animal model in obesity and diabetes studies. SEQ ID NOs. The peptides were delivered at 0.02% PS80 in PBS and dosing volume was 10 mL/kg. Body weight changes, blood glucose, and food intake were monitored Q2D. Animals were fasted at least 4 hours prior to blood glucose measurement.

human GLP-1R = target: T1, human GLP-1R (Homo sapiens, UniProt P43220); assay: cAMP assay (HitHunter cAMP) in GLP-1R-expressing CHO-K1 cells (GLP-1R+ cells); assay type: cell-based; conditions: Table 31
T1 construct: host or cells: CHO-K1
T1 sequence (P43220 24-463): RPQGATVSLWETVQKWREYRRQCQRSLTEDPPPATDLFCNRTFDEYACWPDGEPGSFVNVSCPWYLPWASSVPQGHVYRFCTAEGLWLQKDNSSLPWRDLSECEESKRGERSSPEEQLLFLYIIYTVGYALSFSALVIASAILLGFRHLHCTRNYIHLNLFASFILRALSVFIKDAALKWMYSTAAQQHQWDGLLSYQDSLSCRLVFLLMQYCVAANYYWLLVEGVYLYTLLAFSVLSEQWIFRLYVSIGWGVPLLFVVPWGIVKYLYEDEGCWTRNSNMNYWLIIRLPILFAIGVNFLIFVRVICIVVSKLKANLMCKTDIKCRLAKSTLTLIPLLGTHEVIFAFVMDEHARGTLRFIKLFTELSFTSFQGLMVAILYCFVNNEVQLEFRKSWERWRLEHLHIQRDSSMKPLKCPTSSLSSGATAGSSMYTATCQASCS
Procedure, shortened: (§1)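 CHO-K1 cells expressing each receptor were plated overnight, then treated with peptide in cAMP assay buffer for 30 min at 37 °C. cAMP was detected by antibody plus detection solution (1 h) and Solution A (3 h), both at room temperature in the dark. Luminescence was the read-out.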

human GCGR = target: T2, human GCGR (Homo sapiens, UniProt P47871); assay: cAMP assay (HitHunter cAMP) in GCGR-expressing CHO-K1 cells (GCGR+ cells); assay type: cell-based; conditions: Table 31
T2 construct: host or cells: CHO-K1
T2 sequence (P47871 26-477): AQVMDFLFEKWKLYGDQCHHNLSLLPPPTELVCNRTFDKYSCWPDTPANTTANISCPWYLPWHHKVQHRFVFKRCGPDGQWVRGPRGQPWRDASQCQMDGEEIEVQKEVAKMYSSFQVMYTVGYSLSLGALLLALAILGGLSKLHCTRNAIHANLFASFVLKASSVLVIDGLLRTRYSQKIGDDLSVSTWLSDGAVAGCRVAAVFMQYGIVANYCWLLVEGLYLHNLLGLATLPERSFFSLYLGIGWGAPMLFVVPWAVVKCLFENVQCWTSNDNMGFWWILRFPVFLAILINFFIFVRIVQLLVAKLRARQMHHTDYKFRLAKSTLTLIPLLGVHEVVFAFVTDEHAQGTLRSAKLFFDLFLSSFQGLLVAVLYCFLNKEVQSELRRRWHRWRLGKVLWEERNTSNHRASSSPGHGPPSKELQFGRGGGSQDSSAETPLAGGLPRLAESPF
Procedure, shortened: as §1

[2] = In vitro enzymatic stability against FaSSIF/P (pancreatin in FaSSIF, pH 6.5); assay type: in vitro ADME; conditions: simulated gi fluid, pH 6.5, Half-life (min)
Procedure: This study was conducted to determine the enzymatic stability of SEQ ID NOs. 77, 86, 87, 89, 90, and 91 after biotinylation in artificial intestinal environment. The test samples were prepared by mixing stock solutions of peptide and pancreatin dissolved in FaSSIF solution (pH 6.5) in a weight ratio of 25:1. The test samples were incubated at 37° C. for 120 min. The sampling from test samples was proceeded at the predetermined time points (10, 30, 60, and 120 min) and stopped by 10% TFA solution.
(§2) Analytical HPLC was performed to determine the remaining amount on an ACQUITY Premier system (Waters, USA) with an ACQUITY CSH C18 column (Waters, USA) at 35° C. using 0.1% TFA in water and acetonitrile. The remaining amount was determined as a percentage of the peak area at the sampling time point relative to the peak area of the initial sample.
For the stability against FaSSIF/P, the test samples were prepared by mixing stock solutions of peptide and pancreatin dissolved in FaSSIF solution (pH 6.5) in a weight ratio of 19:1. The test samples were incubated at 37° C. for 120 min. The sampling from test samples was proceeded at the predetermined time points (10, 30, 60, and 120 min) and stopped by 10% TFA solution.

human GIPR = target: T3, human GIPR (Homo sapiens, UniProt P48546); assay: cAMP assay (HitHunter cAMP) in GIPR-expressing CHO-K1 cells (GIPR+ cells); assay type: cell-based; conditions: Table 31
T3 construct: host or cells: CHO-K1
T3 sequence (P48546 22-466): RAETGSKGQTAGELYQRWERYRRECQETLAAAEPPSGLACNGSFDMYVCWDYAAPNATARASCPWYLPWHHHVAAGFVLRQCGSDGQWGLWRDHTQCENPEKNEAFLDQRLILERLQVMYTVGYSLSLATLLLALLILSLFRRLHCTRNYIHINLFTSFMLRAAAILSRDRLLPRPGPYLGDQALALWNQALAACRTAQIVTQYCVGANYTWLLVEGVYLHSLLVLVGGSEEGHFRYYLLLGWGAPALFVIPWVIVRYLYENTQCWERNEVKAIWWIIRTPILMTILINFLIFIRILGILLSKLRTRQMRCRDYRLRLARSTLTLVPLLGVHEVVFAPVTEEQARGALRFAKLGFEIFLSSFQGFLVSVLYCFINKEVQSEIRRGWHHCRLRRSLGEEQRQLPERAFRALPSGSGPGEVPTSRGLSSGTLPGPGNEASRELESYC
Procedure, shortened: as §1

[3] = Intestinal absorption / PK after intraduodenal administration of oral formulation in rats, serum LC-MS/MS; conditions: rat, in vivo
Procedure: This study was conducted to evaluate the intestinal absorption of peptides following enteral administration of oral pharmaceutical formulations. The pharmaceutical formulation was administered in a form of suspensions by intraduodenal (ID) injection in rats. SEQ ID_87, 89 and 90 was accurately weighed and dissolved in 10 mM PBS containing polysorbate 80 (pH 7.4, vehicle I). The mixture was vortexed for 5 min to get a clear solution. Then, 2.5 mL of vehicle was added to the mixture and vortexed for 30 min to get homogenous opaque suspension. The composition of Vehicle II was sodium chenodeoxycholate, and propyl gallate in polysorbate 80 in PBS. The animals were not fasted prior to dosing. 0.2˜ 0.4 mL of whole blood was taken from vein at each time point (0, 0.167, 0.5, 1, 2, 4, 8, 24, and 48 hrs after IV or ID administration). The collected whole blood was incubated at room temperature for 20 min and tubes were centrifugated at 13,000 rpm for 10 min at 4° C. The resulting serum 0.1˜ 0.2 mL was transferred into the tube and stored at −70° C. until analysis. The concentrations of peptides in serum were determined by LC-MS/MS analysis. PK parameters were analyzed by non-compartmental analysis using Phoenix WinNonlin 5.0.1. software (Pharsight Corporation, Mountain View, CA, USA).

[4] = rat, in vivo, iv
Procedure: This study was conducted to evaluate the PK profile of SEQ ID NOs. 77, 102, and 103 and compare the PK profile by the different lipidated structure of peptides in rat plasma by IV administration. SEQ ID NOs. The peptides were delivered at 0.02% PS80 in PBS and dosing volume was 2.5 mL/kg.
The animals were not fasted prior to dosing. 0.2-0.4 mL of whole blood was taken from vein at each time point (0.167, 0.5, 1, 2, 4, 6, 8, 24, and 48 hr after administration) and transferred into the heparin coated tube.
The resulting plasma of 0.1-0.2 mL obtained by centrifugation of the blood samples was transferred into the tube and stored at −70° C. until analysis. The concentrations of peptides in plasma were determined by LC-MS/MS analysis.

[5] = assay type: in vitro ADME; conditions: pH 7.8
Procedure: For the stability against trypsin, the test samples were prepared by mixing stock solutions of peptide and trypsin dissolved in 50 mM PBS (pH 7.8) containing 0.02% PS80 in a weight ratio of 10:1. The test samples were incubated at 37° C. for 180 min. The sampling from test samples was proceeded at the predetermined time points (10, 30, 60, 90, 120, and 180 min) and stopped by 10% TFA solution.
as §2

SMILES | body weight loss effect compared to SEQ ID NO. 77, in words [1] | Ratio vs. GLP-1R, GLP-1R (human GLP-1R) | Relative % to native ligand, GLP-1R (human GLP-1R) | Ratio vs. GLP-1R, GCGR (human GCGR) | Relative % to native ligand, GCGR (human GCGR) | half-life [2] | Ratio vs. GLP-1R, GIPR (human GIPR) | Relative % to native ligand, GIPR (human GIPR) | AUC(0-inf) [3] | Cmax [3] | half-life [3] | time at which Cmax was reached [3] | PK parameter values (half-life and AUCinf/dose), comparison in words [4] | AUCinf/dose ([4]; 100 nmol/kg) | half-life ([4]; 100 nmol/kg) | half-life [5] | half-life ([2]; FaSSIF/P)
CSCC[C@H](NC(=O)[C@H](CCCCNC(=O)CCCC[C@@H]1SC[C@@H]2NC(=O)N[C@@H]21)NC(=O)[C@H](Cc1ccc(O)cc1)NC(=O)[C@H](CC(=O)O)NC(=O)[C@H](CC(C)C)NC(=O)[C@H](CC(C)C)NC(=O)[C@H](CCCCNC(=O)COCCOCCNC(=O)COCCOCCNC(=O)CC[C@H](NC(=O)CCCCCCCCCCCCCCCCC(=O)O)C(=O)O)NC(=O)[C@H](CO)NC(=O)[C@H](Cc1ccc(O)cc1)NC(=O)[C@H](CC(=O)O)NC(=O)[C@H](CO)NC(=O)[C@@H](NC(=O)[C@H](Cc1ccccc1)NC(=O)[C@@H](NC(=O)CNC(=O)[C@H](CCC(N)=O)NC(=O)C(C)(C)NC(=O)[C@@H](N)Cc1ccc(O)cc1)[C@@H](C)O)[C@@H](C)O)C(=O)N[C@@H](CCC(N)=O)C(=O)N[C@@H](CCCNC(=N)N)C(=O)N[C@@H](CC(=O)O)C(=O)N[C@@H](Cc1ccccc1)C(=O)N[C@H](C(=O)N[C@@H](CCC(N)=O)C(=O)N[C@@H](Cc1c[nH]c2ccccc12)C(=O)N[C@@H](CC(C)C)C(=O)N[C@@H](CC(C)C)C(=O)N[C@@H](CCC(=O)O)C(=O)NCC(=O)NCC(=O)N1CCC[C@H]1C(=O)N[C@@H](CO)C(=O)N[C@@H](CO)C(=O)NCC(=O)N[C@@H](C)C(=O)N1CCC[C@H]1C(=O)N1CCC[C@H]1C(=O)N1CCC[C@H]1C(=O)N[C@@H](CO)C(N)=O)C(C)C [compound 87] (H-Y[Aib]QGTFTSDYSK([AEEA-AEEA-γGlu-C18 diacid])LLDYK(Biotin)MQRDFVQWLLEGGPSSGAPPPS-NH2; N-terminus and C-terminus assumed) | inferior | 100 | 110% | 60 | 66% | 0.273 h | 281 | 308% | 1860 ng·h/mL | 290 ng/mL | 6.17 h | 0.25 h | – | – | – | – | –
CC[C@H](C)[C@H](NC(=O)[C@H](CC(C)C)NC(=O)[C@H](Cc1c[nH]c2ccccc12)NC(=O)[C@H](CC(C)C)NC(=O)[C@@H](NC(=O)[C@H](Cc1ccccc1)NC(=O)[C@H](CC(=O)O)NC(=O)CNC(=O)[C@H](C)NC(=O)[C@H](Cc1c[nH]c2ccccc12)NC(=O)[C@@H]1CCCN1C(=O)CNC(=O)[C@H](CC(=O)O)NC(=O)[C@H](CC(C)C)NC(=O)[C@H](Cc1ccc(O)cc1)NC(=O)[C@H](Cc1c[nH]c2ccccc12)NC(=O)[C@H](CO)NC(=O)[C@H](CCCCN)NC(=O)[C@H](CC(=O)O)NC(=O)[C@H](CO)NC(=O)[C@@H](NC(=O)[C@H](Cc1ccccc1)NC(=O)[C@@H](NC(=O)CNC(=O)[C@H](CCC(N)=O)NC(=O)C(C)(C)NC(=O)[C@@H](N)Cc1c[nH]cn1)[C@@H](C)O)[C@@H](C)O)C(C)C)C(=O)N[C@@H](CCC(=O)O)C(=O)NCC(=O)NCC(=O)N1CCC[C@H]1C(=O)N[C@@H](CO)C(=O)N[C@@H](CO)C(=O)NCC(=O)N[C@@H](C)C(=O)N1CCC[C@H]1C(=O)N1CCC[C@H]1C(=O)N1CCC[C@H]1C(=O)N[C@@H](CO)C(=O)N[C@@H](CS)C(=O)O [compound 77, HAibQGT FTSDKSWYLDGPWAGDFVLWLIEGGPSSGAPPPSC] (H-H[Aib]QGTFTSDKSWYLDGPWAGDFVLWLIEGGPSSGAPPPSC-OH; N-terminus and C-terminus assumed) | – | – | – | – | – | 0.657 h | – | – | – | – | – | – | significantly low | 156.76 ± 27.16 kg·h/L | 7.11 ± 0.4 h | 1.54 h | 0.615 h
